Series [1] addresses T1, FAK (Mus musculus, UniProt P34152).
T1 construct: endogenous in cells; host or cells: mouse mammary carcinoma 4T1 cells
The series is described as follows: Phosphorylation levels of FAK at Tyr397 (sandwich ELISA) in 4T1 cells. The series is classed as cell-based. The settings on record: 1 h incubation, read-out: IC50, 50% reduction of phosphorylation level of FAK (Tyr397). As for the experimental part:
Phosphorylation levels of FAK at Tyr397 are quantified by the sandwich ELISA. Mouse mammary carcinoma 4T1 cells (1×10^5) are plated in wells of 96-well culture plates and incubated with or without various concentrations of a compound of formula I for 1 h in Dulbecco's modified eagle medium containing 10% FBS. The medium is removed and cells are lysed in 200 μL 50 mM Tris-HCl, pH 7.4, containing 1% NP-40, 0.25% sodium deoxycholate, 150 mM NaCl, 1 mM EDTA, 1 mM PMSF, 1 mM Na3VO4, 1 mM NaF, 1 μg/mL aprotinin, 1 μg/mL leupeptin and 1 μg/mL pepstatin. After centrifugation, the supernatants are subjected to a sandwich ELISA to quantify the phosphorylated FAK and total FAK. […] After washing with TBSN (20 mM Tris-HCl, pH 8.3, containing 300 mM NaCl, 0.1% SDS and 0.05% NP-40), total FAK is detected with 100 μL of 1 μg/ml anti-FAK polyclonal antibody (#65-6140, Upstate Biology Inc.), and phosphorylated FAK is detected with 100 μL of […] anti-phosphorylated FAK (Y397) antibody (Affinity BioReagents, #OPA1-03071) in BlockAce diluted at 1:10 with H2O. […] Absorbance at 405 nm is measured after 20 min incubation at room temperature. […]
For orientation: ELISA stands for enzyme-linked immunosorbent assay.

The target of series [2] is T2, recombinant hexahistidine-tagged human FAK kinase domain (Homo sapiens, UniProt Q05397).
T2 construct: the kinase domain of FAK (Met384-Gly706) from position 29 to 351; made in house; host or cells: baculovirus; Sf9 and ExpresSF+ insect cells
T2 sequence (Q05397 384-706): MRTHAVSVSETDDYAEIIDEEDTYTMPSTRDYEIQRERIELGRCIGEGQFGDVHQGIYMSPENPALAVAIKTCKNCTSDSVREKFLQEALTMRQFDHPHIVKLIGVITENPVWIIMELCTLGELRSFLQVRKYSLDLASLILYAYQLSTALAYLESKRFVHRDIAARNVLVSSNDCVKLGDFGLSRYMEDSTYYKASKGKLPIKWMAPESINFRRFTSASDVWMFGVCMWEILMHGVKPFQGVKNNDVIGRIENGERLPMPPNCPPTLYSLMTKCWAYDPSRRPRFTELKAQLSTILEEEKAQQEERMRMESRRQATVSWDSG
The experiment in a line: FAK assay (FRET, Biot-Y397 substrate). The format is biochemical.
Experimental: All steps are performed in a 96-well black microtiter plate. Purified recombinant hexahistidine-tagged human FAK kinase domain is diluted with dilution buffer (50 mM HEPES, pH 7.5, 0.01% BSA, 0.05% Tween-20 in water) to a concentration of 94 ng/mL (2.5 nM). The reaction mixture is prepared by mixing 10 μL 5× kinase buffer (250 mM HEPES, pH 7.5, 50 μM Na3VO4, 5 mM DTT, 10 mM MgCl2, 50 mM MnCl2, 0.05% BSA, 0.25% Tween-20 in water), 20 μL water, 5 μL of 4 μM biotinylated peptide substrate (Biot-Y397) in aqueous solution, 5 μL of test compound in DMSO, and 5 μL of recombinant enzyme solution and incubated for 30 min at room temperature. The enzyme reaction is started by addition of 5 μL of 5 μM ATP in water and the mixture is incubated for 3 hours at 37° C. The reaction is terminated by addition of 200 μL of detection mixture (1 nM Eu-PT66, 2.5 μg/mL SA-(SL)APC, 6.25 mM EDTA in dilution buffer), and the FRET signal from europium to allophycocyanin is measured by ARVOsx+L (Perkin Elmer) after 30 min of incubation at room temperature. The ratio of fluorescence intensity of 665 nm to 615 nm is used as a FRET signal for data analysis in order to cancel the colour quenching effect by a test compound. The results are determined as percent inhibition of enzyme activity. […] IC50 values are determined by non-linear curve fit analysis using the OriginPro 6.1 program (OriginLab).

Series [3] has as its system Mouse mammary carcinoma 4T1 cells. The experiment in a line: Anchorage-independent tumor cell growth assay. The settings on record: Ultra low Attachment plates, 48 h, read-out: IC50, 50% inhibition of growth. The series is classed as cell-based. As for the experimental part:
Mouse mammary carcinoma 4T1 cells (5×10^3) are plated in 96-well Ultra low Attachment plates (#3474, Corning Inc.) in […] of Dulbecco's modified eagle medium containing 10% FBS. Cells are cultured for 2 h and inhibitors are added at various concentrations in a final concentration of 0.1% DMSO. After 48 h, cell growth is assayed with the cell counting kit-8 (Wako Pure Chemical), which uses a water soluble tetrazolium salt WST8. Twenty μL of the reagent is added into each well and cells are further cultured for 2 h. The optical density is measured at 450 nm. The concentration of compound causing 50% inhibition of growth may thus be determined.

Series [4] deals with T3, human ZAP-70 protein tyrosine kinase (Homo sapiens, UniProt P43403).
T3 construct: purchased Upstate Biotechnology, Lake Placid, N.Y
T3 sequence (P43403 1-619): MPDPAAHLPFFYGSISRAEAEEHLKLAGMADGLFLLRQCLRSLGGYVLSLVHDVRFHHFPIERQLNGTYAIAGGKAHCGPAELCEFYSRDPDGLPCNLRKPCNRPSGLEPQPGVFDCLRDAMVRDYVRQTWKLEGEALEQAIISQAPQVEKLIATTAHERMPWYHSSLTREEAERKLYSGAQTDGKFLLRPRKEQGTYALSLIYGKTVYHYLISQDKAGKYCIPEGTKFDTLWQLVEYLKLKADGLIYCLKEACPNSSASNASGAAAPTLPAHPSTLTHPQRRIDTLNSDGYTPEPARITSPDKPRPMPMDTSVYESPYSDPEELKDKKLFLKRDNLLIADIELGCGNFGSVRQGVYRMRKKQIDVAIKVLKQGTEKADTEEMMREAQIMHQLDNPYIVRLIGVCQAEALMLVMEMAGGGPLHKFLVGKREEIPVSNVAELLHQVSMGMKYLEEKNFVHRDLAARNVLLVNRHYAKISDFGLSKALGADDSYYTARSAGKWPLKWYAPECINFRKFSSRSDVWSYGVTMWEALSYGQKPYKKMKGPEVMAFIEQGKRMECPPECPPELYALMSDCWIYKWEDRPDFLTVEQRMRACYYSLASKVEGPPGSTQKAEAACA
The experiment in a line: ZAP-70 kinase assay (homogenous, time-resolved FRET, LAT-11 substrate). The series is classed as biochemical. Conditions: 4 μM ATP. The source says: (§1) More particularly the compounds of the invention are active at the human ZAP-70, FAK and/or Syk protein tyrosine kinases.
(§2) ZAP-70, Lck and Syk are commercially available from Upstate Biotechnology, Lake Placid, N.Y.
Preparation of LAT-11 (SEQ ID NO:1): The peptide LAT-11 used as a substrate in the ZAP-70 kinase assay may be prepared as disclosed in Example 1A of WO 02/12275, the contents of which, particularly with reference to Example 1A, is incorporated herein by reference.
ZAP-70 Kinase assay: The activities of the agents of invention are determined in a homogenous ZAP-70 kinase assay based on time-resolved fluorescence resonance energy transfer. Briefly, 80 nM ZAP-70 are incubated with 80 nM Lck and 4 μM ATP in ZAP-70 kinase buffer (20 mM Tris, pH 7.5, 10 μM Na3VO4, 1 mM DTT, 1 mM MnCl2, 0.01% bovine serum albumin, 0.05% Tween 20) for 1 hour at room temperature in a siliconized polypropylene tube. Then, the selective Lck inhibitor PP2 (4-amino-5-(4-chloro-phenyl)-7-(t-butyl)pyrazolo[3,4-d]pyrimidine; Alexis Biochemicals) is added (final concentration 1.2 μM) and incubated for further 10 min. […] After 1 hour incubation at room temperature fluorescence is measured, e.g., on the Victor2 Multilabel Counter (Wallac) at 665 nm. […] The inhibition obtained in the presence of test compounds was calculated as percent inhibition of the high control. […]

The target in series [5] is T4, human Syk protein tyrosine kinase (Homo sapiens, UniProt P43405).
T4 construct: purchased Upstate Biotechnology, Lake Placid, N.Y
The experiment in a line: Syk kinase assay (heterogenous DELFIA, poly(Glu, Tyr) substrate). The format is biochemical. Conditions: ATP 1 μM. As for the experimental part: as §1, §2
Syk Kinase assay: The activities of the agents of invention are determined in a heterogenous Syk kinase assay based on the dissociation-enhanced lanthanide fluoroimmunoassay (DELFIA) technology. This method utilizes europium chelate-labelled anti-phosphotyrosine antibodies to detect phosphate transfer by Syk to a polymeric glutamic acid-tyrosine (Glu, Tyr) substrate coated onto microtiter plates as described (Braunwalder A F, Yarwood D R, Sills M A, Lipson K E. Measurement of the protein tyrosine kinase activity of c-src using time-resolved fluorometry of europium chelates. Anal. Biochem. 1996; 238(2):159-64). The amount of phosphorylation is then quantified with time-resolved, dissociation-enhanced fluorescence. Briefly, hundred μl of poly (Glu, Tyr) (4:1; 2 μg/ml in phosphate-buffered saline, PBS) are coated to ELISA plates overnight at room temperature. The poly (Glu, Tyr) solution is removed and 250 μl of 1% bovine serum albumin in PBS are added for one hour at room temperature. […] Fluorescence is determined at 615 nm (Victor2; Wallac). […] The inhibition obtained in the presence of test compounds was calculated as percent inhibition of the high control. […]

Molecules are shown by their SMILES.

T1 sequence (P34152 whole entry): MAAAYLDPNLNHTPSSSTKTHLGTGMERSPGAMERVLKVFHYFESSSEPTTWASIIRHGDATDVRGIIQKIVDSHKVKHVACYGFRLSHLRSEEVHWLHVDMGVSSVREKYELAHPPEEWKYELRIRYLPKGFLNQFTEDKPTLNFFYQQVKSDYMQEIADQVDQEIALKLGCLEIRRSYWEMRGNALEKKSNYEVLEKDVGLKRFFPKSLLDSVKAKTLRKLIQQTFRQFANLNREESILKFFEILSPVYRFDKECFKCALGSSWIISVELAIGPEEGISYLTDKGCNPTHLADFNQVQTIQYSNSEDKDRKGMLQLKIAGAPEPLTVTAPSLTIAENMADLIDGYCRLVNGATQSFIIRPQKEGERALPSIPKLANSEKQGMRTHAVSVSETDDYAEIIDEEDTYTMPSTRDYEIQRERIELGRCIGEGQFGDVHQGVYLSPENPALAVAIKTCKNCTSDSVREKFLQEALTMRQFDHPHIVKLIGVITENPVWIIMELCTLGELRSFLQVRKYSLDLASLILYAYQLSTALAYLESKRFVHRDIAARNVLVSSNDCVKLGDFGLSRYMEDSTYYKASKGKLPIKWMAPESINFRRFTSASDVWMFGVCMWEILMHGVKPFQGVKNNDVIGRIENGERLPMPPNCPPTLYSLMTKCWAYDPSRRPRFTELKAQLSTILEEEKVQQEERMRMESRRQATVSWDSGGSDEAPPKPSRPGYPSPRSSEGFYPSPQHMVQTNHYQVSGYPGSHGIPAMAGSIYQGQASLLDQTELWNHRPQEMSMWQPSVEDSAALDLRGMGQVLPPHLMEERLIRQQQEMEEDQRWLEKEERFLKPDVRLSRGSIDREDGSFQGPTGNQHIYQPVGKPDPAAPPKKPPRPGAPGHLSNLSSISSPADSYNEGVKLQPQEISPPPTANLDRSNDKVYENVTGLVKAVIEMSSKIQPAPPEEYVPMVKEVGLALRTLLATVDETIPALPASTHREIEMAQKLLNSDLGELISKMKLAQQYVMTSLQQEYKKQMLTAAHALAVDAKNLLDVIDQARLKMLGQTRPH

In general, IC50 refers to the concentration that gives 50% inhibition. `CNS(=O)(=O)c1ccccc1Nc1nc(Nc2ccc3cn[nH]c3c2)ncc1Br` [Example 198]: in series [1], the IC50 came out at 43 nM.
`CNS(=O)(=O)c1ccccc1Nc1nc(Nc2cccc(C)c2)ncc1Br` [Example 188]: the IC50 in series [2] worked out at 15 nM.
For the compound `CNS(=O)(=O)c1ccccc1Nc1nc(Nc2cc(OC)c(OC)c(OC)c2)ncc1Cl` [Example 213], the IC50 in series [3] was determined as 16 nM.
`CNS(=O)(=O)c1cc(F)ccc1Nc1nc(Nc2cc(OC)c(OC)c(OC)c2)ncc1Br` [Example 190]: in series [1], the IC50 was determined as 440 nM.
For the compound `COc1cc(Nc2nccc(Nc3cccc(OC)c3S(N)(=O)=O)n2)cc(OC)c1OC` [Example 4, 2-Methoxy-6-[2-(3,4,5-trimethoxy-phenylamino)-pyrimidin-4-ylamino]-benzenesulfonamide], the IC50 in series [4] turned out to be 12 nM.
In the case of `CNS(=O)(=O)c1ccccc1Nc1nc(Nc2cc(OC)c(OC)c(OC)c2)ncc1C(F)(F)F` [Example 208], the IC50 in series [2] came to 1 nM.
In the case of `Cc1cccc(Nc2ccnc(Nc3cccc(OCCn4ccnc4)c3)n2)c1S(N)(=O)=O` [Example 128], inhibition in series [5] was half-maximal at 150 nM (IC50).
As usually defined, the melting point is the temperature of the solid-liquid transition. Regarding `COc1cc(Nc2nccc(Nc3cccc(C)c3S(N)(=O)=O)n2)cc(OC)c1OC` [Example 3, 2-methyl-6-[2-(3,4,5-Trimethoxy-phenylamino)-pyrimidin-4-ylamino]-benzenesulfonamide], the melting point lay in the range of 72 to 75 °C.

Source of the values: patent US8431589B2, “2,4-diaminopyrimidine derivatives” (Novartis AG, priority 2002, dated 2013).
